How the values were obtained:
Test in all cases: Human liver microsomes CYP450 cocktail inhibition assay
Format in all cases: in vitro ADME
CYP1A2 = molecular target: T1, CYP1A2 (Homo sapiens, UniProt P05177); details: HLM 0.2 mg/ml, 10 mins; read-out: Calculated IC50, HLM 1A2
T1 construct: Frozen human liver microsomes (HLM) were thawed at 37° C; from tissue; host or cells: human liver microsomes
T1 sequence (P05177 1-516): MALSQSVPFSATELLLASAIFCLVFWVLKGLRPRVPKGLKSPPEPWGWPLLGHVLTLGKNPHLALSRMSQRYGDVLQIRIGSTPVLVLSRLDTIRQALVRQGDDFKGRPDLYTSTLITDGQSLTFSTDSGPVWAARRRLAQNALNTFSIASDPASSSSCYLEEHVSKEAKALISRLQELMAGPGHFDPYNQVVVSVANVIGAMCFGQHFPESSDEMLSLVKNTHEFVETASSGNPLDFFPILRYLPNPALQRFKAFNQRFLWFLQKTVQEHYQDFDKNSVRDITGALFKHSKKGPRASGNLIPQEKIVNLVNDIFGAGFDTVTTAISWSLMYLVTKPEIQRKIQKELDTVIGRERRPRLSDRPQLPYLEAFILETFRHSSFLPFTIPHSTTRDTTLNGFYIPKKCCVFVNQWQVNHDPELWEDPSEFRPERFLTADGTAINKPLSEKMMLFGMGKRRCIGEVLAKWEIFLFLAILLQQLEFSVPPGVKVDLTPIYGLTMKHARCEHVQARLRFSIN
Source text: (§1) Human Liver Microsomes CYP450 Cocktail Inhibition Assay
(§2) The cocktail DDI assay was used to evaluate test compound(s) for potential to cause drug-drug interactions via inhibition of clinically important P450 isoforms (CYP1A2, 2C8, 2C9, 2C19, 2D6, and 3A4) in early discovery. Discrimination of the inhibitory potential of the test compound towards each isoform was achieved by using a cocktail of specific probe substrates which are known to be selectively metabolized to defined metabolites by the isoforms under investigation. For example, dextromethorphan is known to be demethylated exclusively by the 2D6 isoform. Co-incubation of the probe substrates in human liver microsomes (HLM) with the test compound(s) at a range of inhibitor concentrations allows calculation of IC50 values for multiple CYP isoforms simultaneously and therefore offers a higher throughput compared to a traditional single probe assay.
(§3) Methods and Procedures: Final protein concentration in the incubation was 0.2 mg/ml and incubation time was 10 mins. The final total solvent in the incubation was 0.15% DMSO and 0.8% acetonitrile. The assay was automated on a Beckman Biomek FX automated liquid handler with multi-channel pipetting tools (8-channel and 96-channel), on deck reagent cooling capabilities and integrated automated Cytomat incubator (37° C.) with plate shaking facilities (Kendro).
(§4) Test compounds were supplied as 5 mM DMSO stock solutions. 0.1 M Phosphate buffer (pH7.4) was prepared in house using Na2HPO4·12H2O and KH2PO4.
(§5) Frozen human liver microsomes (HLM) were thawed at 37° C. while agitating regularly until the whole volume was thawed, then held on ice. Based on the protein concentration of the HLM batch, the suspension was further diluted in assay buffer and the probe substrate mixture (substrate for each CYP isoform) to yield the final protein concentration of 0.2 mg/mL.
(§6) Probe substrates were prepared separately in assay buffer (phenacetin, tolbutamide, S-mephenytoin, dextromethorphan) or water (amodiaquine, midazolam). These were combined (at the appropriate conc per substrate) with HLM and assay buffer to yield the final Enzyme/Substrate mix.
(§7) The final total solvent in the incubation was 0.15% DMSO and 0.8% acetonitrile. NADPH (5.27 mM) was prepared as a solution in assay buffer (Room Temp). The quenching solution containing deuterated analogues of each of the seven probe substrate metabolites was dissolved at an appropriate concentration in acetonitrile.
(§8) Assay procedure: Samples for incubation were prepared by combining appropriate volumes of Enzyme/Substrate mix (80 μl) and stock solutions of test or reference inhibitors (1 μl solutions added from a dilution series). Following a pre-incubation period (typically, 10 minutes), the reaction was initiated by the addition of NADPH solution (19 μl, 5.27 mM). The samples were incubated at 37° C. for 10 mins. The incubations were quenched by the addition of 1.6 volumes of chilled quenching solution. The incubations were then centrifuged for 10 minutes at 4000 rpm at 4° C. A defined volume of the supernatant (S/N) was transferred into a separate container and diluted with water (S/N: Water=60 μL/180 μL). Each sample was injected onto a UPLC/MS system using an LC/MS method selective for the simultaneous measurement of all seven probe substrate metabolites (and associated deuterated internal standards).
(§9) Calculations and Formulas: Percentage activity was calculated as % activity=(Ri/R)*100 • where Ri and R were the metabolite to internal standard peak area ratios in the presence and absence of TC, respectively. The percentage activity data were then plotted against log (TC concentration) and a curve was fitted to the data to return the IC50 using a data reduction tool within 3DX. […]

CYP2C19 = molecular target: T2, CYP2C19 (Homo sapiens, UniProt P33261); details: HLM 0.2 mg/ml, 10 mins; read-out: Calculated IC50, HLM 2C19
T2 construct: Frozen human liver microsomes (HLM) were thawed at 37° C; from tissue; host or cells: human liver microsomes
T2 sequence (P33261 whole entry): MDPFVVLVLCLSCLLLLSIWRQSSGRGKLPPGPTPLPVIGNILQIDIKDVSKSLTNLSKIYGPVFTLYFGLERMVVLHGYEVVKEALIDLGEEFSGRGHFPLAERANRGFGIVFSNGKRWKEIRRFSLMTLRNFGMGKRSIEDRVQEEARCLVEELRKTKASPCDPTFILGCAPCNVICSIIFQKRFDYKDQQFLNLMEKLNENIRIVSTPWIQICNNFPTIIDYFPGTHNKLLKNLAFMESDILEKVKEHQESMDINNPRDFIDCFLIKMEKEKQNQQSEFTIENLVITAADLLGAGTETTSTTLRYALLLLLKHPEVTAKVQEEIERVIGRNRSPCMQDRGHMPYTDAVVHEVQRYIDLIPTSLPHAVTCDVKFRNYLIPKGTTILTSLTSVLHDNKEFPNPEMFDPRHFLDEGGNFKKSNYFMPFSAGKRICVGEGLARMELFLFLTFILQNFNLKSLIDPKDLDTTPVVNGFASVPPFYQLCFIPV
Source text: as §1, §2, §3, §4, §5, §6, §7, §8, §9

CYP2C8 = molecular target: T3, CYP2C8 (Homo sapiens, UniProt P10632); details: HLM 0.2 mg/ml, 10 mins; read-out: Calculated IC50, HLM 2C8
T3 construct: Frozen human liver microsomes (HLM) were thawed at 37° C; from tissue; host or cells: human liver microsomes
T3 sequence (P10632 1-490): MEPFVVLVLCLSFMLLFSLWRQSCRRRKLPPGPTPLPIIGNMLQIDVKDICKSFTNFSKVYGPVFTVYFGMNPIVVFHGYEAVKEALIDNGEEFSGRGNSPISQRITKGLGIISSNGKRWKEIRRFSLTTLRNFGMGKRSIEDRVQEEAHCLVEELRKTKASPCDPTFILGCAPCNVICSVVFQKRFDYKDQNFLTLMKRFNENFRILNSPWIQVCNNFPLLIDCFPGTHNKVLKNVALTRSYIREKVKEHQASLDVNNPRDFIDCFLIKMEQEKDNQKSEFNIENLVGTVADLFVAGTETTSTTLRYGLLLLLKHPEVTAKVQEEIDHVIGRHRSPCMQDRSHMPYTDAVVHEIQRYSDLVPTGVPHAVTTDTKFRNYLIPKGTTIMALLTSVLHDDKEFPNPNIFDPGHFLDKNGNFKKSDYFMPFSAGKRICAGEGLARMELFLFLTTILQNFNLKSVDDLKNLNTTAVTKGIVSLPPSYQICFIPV
Source text: as §1, §2, §3, §4, §5, §6, §7, §8, §9

CYP2C9 = molecular target: T4, CYP2C9 (Homo sapiens, UniProt P11712); details: HLM 0.2 mg/ml, 10 mins; read-out: Calculated IC50, HLM 2C9
T4 construct: Frozen human liver microsomes (HLM) were thawed at 37° C; from tissue; host or cells: human liver microsomes
T4 sequence (P11712 whole entry): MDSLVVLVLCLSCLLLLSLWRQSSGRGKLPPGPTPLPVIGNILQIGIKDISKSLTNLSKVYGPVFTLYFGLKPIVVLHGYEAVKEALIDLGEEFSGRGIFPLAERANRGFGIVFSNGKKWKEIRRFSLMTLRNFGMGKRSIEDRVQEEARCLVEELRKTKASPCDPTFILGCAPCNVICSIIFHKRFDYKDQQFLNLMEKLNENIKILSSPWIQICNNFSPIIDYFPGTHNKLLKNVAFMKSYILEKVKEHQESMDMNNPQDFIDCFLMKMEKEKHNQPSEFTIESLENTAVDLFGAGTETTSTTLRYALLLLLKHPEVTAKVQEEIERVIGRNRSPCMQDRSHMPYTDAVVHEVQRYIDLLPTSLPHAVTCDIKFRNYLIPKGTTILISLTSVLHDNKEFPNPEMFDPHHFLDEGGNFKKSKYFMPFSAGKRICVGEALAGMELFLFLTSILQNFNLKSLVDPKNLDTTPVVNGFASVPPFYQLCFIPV
Source text: as §1, §2, §3, §4, §5, §6, §7, §8, §9

CYP2D6 = molecular target: T5, CYP2D6 (Homo sapiens, UniProt P10635); details: HLM 0.2 mg/ml, 10 mins; read-out: Calculated IC50, HLM 2D6
T5 construct: Frozen human liver microsomes (HLM) were thawed at 37° C; from tissue; host or cells: human liver microsomes
T5 sequence (P10635 whole entry): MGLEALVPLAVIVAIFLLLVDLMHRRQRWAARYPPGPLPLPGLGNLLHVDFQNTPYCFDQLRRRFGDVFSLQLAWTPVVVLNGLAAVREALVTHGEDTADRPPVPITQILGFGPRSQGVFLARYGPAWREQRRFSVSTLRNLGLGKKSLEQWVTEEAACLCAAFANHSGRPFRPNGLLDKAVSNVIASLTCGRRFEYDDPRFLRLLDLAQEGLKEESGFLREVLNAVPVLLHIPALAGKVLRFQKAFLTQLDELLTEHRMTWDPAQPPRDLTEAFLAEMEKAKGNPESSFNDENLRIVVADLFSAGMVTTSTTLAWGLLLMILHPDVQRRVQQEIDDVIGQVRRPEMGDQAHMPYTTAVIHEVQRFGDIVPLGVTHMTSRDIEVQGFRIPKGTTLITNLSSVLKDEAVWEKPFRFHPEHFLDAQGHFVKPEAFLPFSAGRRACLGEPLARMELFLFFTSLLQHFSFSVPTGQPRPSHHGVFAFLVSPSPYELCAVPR
Source text: as §1, §2, §3, §4, §5, §6, §7, §8, §9

CYP3A4 = molecular target: T6, CYP3A4 (Homo sapiens, UniProt P08684); details: HLM 0.2 mg/ml, 10 mins; read-out: Calculated IC50, HLM 3A4
T6 construct: Frozen human liver microsomes (HLM) were thawed at 37° C; from tissue; host or cells: human liver microsomes
T6 sequence (P08684 whole entry): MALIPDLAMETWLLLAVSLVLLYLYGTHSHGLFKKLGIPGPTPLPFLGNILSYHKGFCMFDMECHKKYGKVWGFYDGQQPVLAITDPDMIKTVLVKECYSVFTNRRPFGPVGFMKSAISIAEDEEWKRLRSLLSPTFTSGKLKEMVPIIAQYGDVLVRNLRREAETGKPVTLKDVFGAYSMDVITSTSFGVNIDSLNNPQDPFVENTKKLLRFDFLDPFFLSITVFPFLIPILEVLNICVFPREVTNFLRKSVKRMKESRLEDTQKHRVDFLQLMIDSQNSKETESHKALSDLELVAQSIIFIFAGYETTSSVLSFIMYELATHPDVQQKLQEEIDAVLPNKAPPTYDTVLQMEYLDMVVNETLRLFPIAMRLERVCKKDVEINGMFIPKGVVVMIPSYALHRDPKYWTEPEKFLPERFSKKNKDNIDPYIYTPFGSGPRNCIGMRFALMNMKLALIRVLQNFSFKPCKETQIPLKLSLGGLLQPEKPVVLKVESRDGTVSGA
Source text: as §1, §2, §3, §4, §5, §6, §7, §8, §9

## O=C1C=C(c2c(-n3cnnn3)ccc(Cl)c2F)C[C@H]2CC[C@@H](c3ncc(-c4ccnc(CO)c4F)[nH]3)N12 [Compound of formula (I-A), (3S,8aR)-7-(3-Chloro-2-fluoro-6-(1H-tetrazol-1-yl)phenyl)-3-(5-(3-fluoro-2-(hydroxymethyl)pyridin-4-yl)-1H-imidazol-2-yl)-2,3,8,8a-tetrahydroindolizin-5(1H)-one]
CYP1A2
  IC50: > 20 µM
CYP2C19
  IC50: > 20 µM
CYP2C8
  IC50: > 20 µM
CYP2C9
  IC50: > 20 µM
CYP2D6
  IC50: > 20 µM
CYP3A4
  IC50: 14.4 µM

— patent US12545677B2, “Compounds useful as factor XIa inhibitors” (JANSSEN PHARMACEUTICA NV, priority 2020, dated 2026)
